Test results: US3989837A, “Pharmaceutical compositions” (Chinoin Gyogyszer-es Vegyeszeti Termekek Gyara RT, priority 1972, dated 1976)
Several values for one entry are separate records, joined by “and”; a condition that tells them apart may be missing. Equal values may be shown once.

What was measured:
[1] = system: rats; experiment: Ulcerogeneous action on rats, comparison with Indomethacine (Table 3'); conditions: male rats, 5 days
[2] = system: cotton granuloma; experiment: Cotton granuloma, comparison with Indomethacine (Table 6); format: in vivo, rat; conditions: male rats, oral daily 4 mg./kg., 7 days, p 0.001
Method: Two cotton beads, each weighing 23 to 27 mg., were implanted under the dorsal skin of the animals in aether narcosis, under semisterile conditions, along both sides of the vertebral column. The compound under examination was administered twice a day for 7 days in oral dosages of 0.2 ml./100 g. body weight, in a suspension formed with 1% methyl cellulose. On the 8th day the animals were killed by etheral overnarcosis, the granulomes were removed, dried at 50° C for 5 hours, and then weighed. The animals belonging to the control group were treated similarly, but they received suspending agent only. The percentage efficiacy was calculated from the weight differences of the granuloma tissues observed for the treated and control groups. The significance was examined by the t test.

[3] = system: carrageenine oedema; experiment: Rat paw oedema, carrageenine (Table 5'); format: in vivo; conditions: female rats, p.o. 10 mg./kg.; for Effect % (average), inhibition of carrageenine oedema: average of repeated tests
Method: (§1) Inflammatory plantar oedema was provided by the subplantar injection of 0.1 ml. of 5% kaoline or 0.5% carrageenine on female rats each weighing 110 to 130 g., starved for 24 hours. The dorsoplantar diameter of the test animals was measured with a double-armed instrument prior to the administration of the phlogistic (basic value) and at regular intervals (at 2, 3.5 and 5 hours for kaoline and at 1.5, 3 and 4.5 hours for carrageenine) after the administration of the phlogistic. […] The treatment was always carried out 1 hour before the administration of the phlogistic. The animals belonging to the control group received suspending agent only. In order to ensure a uniform hydration grade, 1 ml. of tap water was administered through a stomach tube to the animals simultaneously with the administration of the active agent. During the test period the animals were allowed to consume water ad libitum.
(§2) The effect was calculated from the difference of the increase in paw diameter observed in the treated and control groups. The daga are given as percentage efficiacy.
(§3) The significance level was examined by Student's t test. The significance levels are marked by asterisks; the values of the repeated tests are given separately.

[4] = system: writhing syndrome; experiment: Writhing syndrome, comparison with Indomethacine (Table 7); format: in vivo, mouse; conditions: male mice
Method: The tests were carried out on male mice each weighing 15 to 18 g., starved for 16 hours prior to treatment. 0.1 ml./10 g. body weight of 1% acetic acid solution was injected intraperitoneally to the animals. The sterile inflammation occurred on the action of acetic acid provoked a characteristic syndrome (writhing). The number of writhings was counted during an observation period of 20 minutes, starting 15 minutes after the administration of acetic acid. The substance to be tested was administered orally as a suspension, in a dosage of 0.1 ml./10 g. body weight 2 to 4 hours before the acetic acid injection. The average number of writhings observed for the treated animals was compared to that observed in the control group, and the percentage inhibition was calculated from the difference.

[5] = system: kaoline oedema; experiment: Rat paw oedema, kaoline (Table 4'); format: in vivo; conditions: female rats; for Effect % (average), inhibition of kaoline oedema: average of repeated tests
Method: as §1, §2, §3

[6] = Toxicity on mice after oral administration, single dosage (Table 1'); format: in vivo; conditions: mouse, in vivo, po; male mice, p.o., 168 hours; read-out: LD50
Method: (§4) The tests were carried out on male mice weighing 25 to 30 g., not starved previously. The compounds were administered in a dosage of 0.2 ml. of suspension per 10 g. body weight. The individual dosages indicated in Table 1' were administered to 10 mice each. The given amount of active agent was added in a single dosage, and the animals were dept under observation for 7 days (= 168 hours). The number of deceased animals was recorded daily.
(§5) The LD50 values were calculated according to the Litchfied-Wilcoxon method, by also taking into account the number of animals perished within 168 hours from the administration.

[7] = system: mice; experiment: as above; format: in vivo; conditions: male mice
Method: as §4, §5

In the case of `COc1ccc2c(c1)c(CC(=O)O)c(C)n2C(=O)c1ccc(Cl)cc1` [Indomethacine, reference compound], the “Animals having lesions on the intestines” value ([1]; oral 4 mg./kg.) is reported as 5%, the Perishment ([1]; oral 4 mg./kg.) is reported as 0/20 and the Survivals ([1]; oral 4 mg./kg.) is reported as 20. For the same molecule, the Ulcer index ([1]; oral 4 mg./kg.) was 0.45, the Ulcer number ([1]; oral 4 mg./kg.) was 0.1 and the “Animals having lesions on the intestines” value ([1]; oral 8 mg./kg.) was 40%. For the same molecule, the Perishment ([1]; oral 8 mg./kg.) was 10/20, the Survivals ([1]; oral 8 mg./kg.) was 10 and the Ulcer index ([1]; oral 8 mg./kg.) was 0.3. For the same molecule, the Ulcer number ([1]; oral 8 mg./kg.) was 0, the “Effect %, cotton granuloma” value [2] was 36.0% and the “Effect %, inhibition of carrageenine oedema” value ([3]; 1.5 hours) was 24.1% and 20.6%. The “Effect % (average), inhibition of carrageenine oedema” value ([3]; 1.5 hours) was 22.3%, the “Effect %, inhibition of carrageenine oedema” value ([3]; 3 hours) was 32.9% and 28.8% and the “Effect % (average), inhibition of carrageenine oedema” value ([3]; 3 hours) was 30.8%. The “Effect %, inhibition of carrageenine oedema” value ([3]; 4.5 hours) was 19.8% and 20.9%, the “Effect % (average), inhibition of carrageenine oedema” value ([3]; 4.5 hours) was 20.3% and the “Effect %, writhing” value ([4]; p.o. 5 mg./kg., 2 hours) was 58.2% and 61.1%. For the same molecule, the “Effect % average, writhing” value ([4]; p.o. 5 mg./kg., 2 hours) was 59.6%, the “Effect %, writhing” value ([4]; p.o. 5 mg./kg., 4 hours) was 65.7% and 43.7% and the “Effect % average, writhing” value ([4]; p.o. 5 mg./kg., 4 hours) was 54.7%. For the same molecule, the “Effect %, writhing” value ([4]; p.o. 12.5 mg./kg., 2 hours) was 73.6% and 67.2%, the “Effect % average, writhing” value ([4]; p.o. 12.5 mg./kg., 2 hours) was 70.4% and the “Effect %, writhing” value ([4]; p.o. 12.5 mg./kg., 4 hours) was 85.8% and 70.0%. For the same molecule, the “Effect % average, writhing” value ([4]; p.o. 12.5 mg./kg., 4 hours) was 77.9%, the “Effect %, inhibition of kaoline oedema” value ([5]; p.o. 10 mg./kg., 2 hours) was 14.7% and 19.7% and the “Effect % (average), inhibition of kaoline oedema” value ([5]; p.o. 10 mg./kg., 2 hours) was 17.2%. For the same molecule, the “Effect %, inhibition of kaoline oedema” value ([5]; p.o. 10 mg./kg., 3.5 hours) was 19.5% and 27.6%, the “Effect % (average), inhibition of kaoline oedema” value ([5]; p.o. 10 mg./kg., 3.5 hours) was 23.5% and the “Effect %, inhibition of kaoline oedema” value ([5]; p.o. 10 mg./kg., 5 hours) was 21.2% and 27.2%. For the same molecule, the “Effect % (average), inhibition of kaoline oedema” value ([5]; p.o. 10 mg./kg., 5 hours) was 24.2%, the “Effect %, inhibition of kaoline oedema” value ([5]; p.o. 25 mg./kg., 2 hours) was 33.7% and 32.7% and the “Effect % (average), inhibition of kaoline oedema” value ([5]; p.o. 25 mg./kg., 2 hours) was 33.2%. The “Effect %, inhibition of kaoline oedema” value ([5]; p.o. 25 mg./kg., 3.5 hours) was 35.1% and 37.1%, the “Effect % (average), inhibition of kaoline oedema” value ([5]; p.o. 25 mg./kg., 3.5 hours) was 36.1% and the “Effect %, inhibition of kaoline oedema” value ([5]; p.o. 25 mg./kg., 5 hours) was 32.1% and 44.4%. For the same molecule, the “Effect % (average), inhibition of kaoline oedema” value ([5]; p.o. 25 mg./kg., 5 hours) was 38.2%, the LD50 at 168 h [6] was 140 mg/kg and the Perished animals/treated animals ([7]; oral 50 mg./kg., 24 h) was 0/10. For the same molecule, the Perished animals/treated animals ([7]; oral 50 mg./kg., 48 h) was 0/10, the Perished animals/treated animals ([7]; oral 50 mg./kg., 72 h) was 0/10 and the Perished animals/treated animals ([7]; oral 50 mg./kg., 96 h) was 0/10. For the same molecule, the Perished animals/treated animals ([7]; oral 50 mg./kg., 120 h) was 0/10, the Perished animals/treated animals ([7]; oral 50 mg./kg., 144 h) was 0/10 and the Perished animals/treated animals ([7]; oral 50 mg./kg., 168 h) was 0/10. For the same molecule, the Perished animals/treated animals ([7]; oral 150 mg./kg., 24 h) was 0/10, the Perished animals/treated animals ([7]; oral 150 mg./kg., 48 h) was 0/10 and the Perished animals/treated animals ([7]; oral 150 mg./kg., 72 h) was 0/10. For the same molecule, the Perished animals/treated animals ([7]; oral 150 mg./kg., 96 h) was 2/10, the Perished animals/treated animals ([7]; oral 150 mg./kg., 120 h) was 4/10 and the Perished animals/treated animals ([7]; oral 150 mg./kg., 144 h) was 6/10. For the same molecule, the Perished animals/treated animals ([7]; oral 150 mg./kg., 168 h) was 6/10, the Perished animals/treated animals ([7]; oral 300 mg./kg., 24 h) was 0/10 and the Perished animals/treated animals ([7]; oral 300 mg./kg., 48 h) was 0/10. The Perished animals/treated animals ([7]; oral 300 mg./kg., 72 h) was 4/10, the Perished animals/treated animals ([7]; oral 300 mg./kg., 96 h) was 6/10 and the Perished animals/treated animals ([7]; oral 300 mg./kg., 120 h) was 8/10. The Perished animals/treated animals ([7]; oral 300 mg./kg., 144 h) was 10/10, the Perished animals/treated animals ([7]; oral 300 mg./kg., 168 h) was 10/10 and the Perished animals/treated animals ([7]; oral 500 mg./kg., 24 h) was 0/10. For the same molecule, the Perished animals/treated animals ([7]; oral 500 mg./kg., 48 h) was 2/10, the Perished animals/treated animals ([7]; oral 500 mg./kg., 72 h) was 4/10 and the Perished animals/treated animals ([7]; oral 500 mg./kg., 96 h) was 7/10. For the same molecule, the Perished animals/treated animals ([7]; oral 500 mg./kg., 120 h) was 9/10, the Perished animals/treated animals ([7]; oral 500 mg./kg., 144 h) was 10/10 and the Perished animals/treated animals ([7]; oral 500 mg./kg., 168 h) was 10/10. The Perished animals/treated animals ([7]; oral 700 mg./kg., 24 h) was 1/10, the Perished animals/treated animals ([7]; oral 700 mg./kg., 48 h) was 5/10 and the Perished animals/treated animals ([7]; oral 700 mg./kg., 72 h) was 5/10. The Perished animals/treated animals ([7]; oral 700 mg./kg., 96 h) was 7/10, the Perished animals/treated animals ([7]; oral 700 mg./kg., 120 h) was 9/10 and the Perished animals/treated animals ([7]; oral 700 mg./kg., 144 h) was 9/10. The Perished animals/treated animals ([7]; oral 700 mg./kg., 168 h) was 10/10, the Perished animals/treated animals ([7]; oral 900 mg./kg., 24 h) was 1/10 and the Perished animals/treated animals ([7]; oral 900 mg./kg., 48 h) was 4/10. For the same molecule, the Perished animals/treated animals ([7]; oral 900 mg./kg., 72 h) was 6/10, the Perished animals/treated animals ([7]; oral 900 mg./kg., 96 h) was 8/10 and the Perished animals/treated animals ([7]; oral 900 mg./kg., 120 h) was 10/10. For the same molecule, the Perished animals/treated animals ([7]; oral 900 mg./kg., 144 h) was 10/10 and the Perished animals/treated animals ([7]; oral 900 mg./kg., 168 h) was 10/10.
